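GI50 is the concentration that inhibits growth by half. TGI marks complete inhibition of growth.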
Tests used:
Assay in all cases: growth of human tumour cells (NCI), 384-well format
[1] = test system: BT-549 breast
[2] = test system: HT29 colon
[3] = test system: UACC-62 melanoma
[4] = test system: OVCAR-5 ovarian
[5] = test system: HOP-62 NSCLC
[6] = test system: RXF 393 renal
[7] = test system: KM12 colon
[8] = test system: TK-10 renal
[9] = test system: SNB-75 CNS
[10] = test system: UO-31 renal
[11] = test system: NCI-H522 lung
[12] = test system: SW-620 colon
[13] = test system: SK-MEL-28 melanoma
[14] = test system: MOLT-4 leukemia
[15] = test system: DU-145 prostate
[16] = test system: 786-0 renal
[17] = test system: A498 renal
[18] = test system: NCI-H460 NSCLC
[19] = test system: OVCAR-4 ovarian
[20] = test system: SF-268 CNS
[21] = test system: SK-OV-3 ovarian
[22] = test system: T-47D breast
[23] = test system: CAKI-1 renal
[24] = test system: HCC-2998 colon
[25] = test system: EKVX NSCLC
[26] = test system: UACC-257 melanoma
[27] = test system: OVCAR-3 ovarian
[28] = test system: PC-3 prostate
[29] = test system: SN12C renal
[30] = test system: M14 melanoma
[31] = test system: SK-MEL-5 melanoma
[32] = test system: U251 glioblastoma
[33] = test system: LOX IMVI melanoma
[34] = test system: OVCAR-8 ovarian
[35] = test system: HCT-15 colon
[36] = test system: HOP-92 NSCLC
[37] = test system: MDA-MB-435 melanoma
[38] = test system: IGROV1 ovarian
[39] = test system: SR leukemia
[40] = test system: SF-295 CNS
[41] = test system: RPMI-8226 leukemia
[42] = test system: A549 NSCLC
[43] = test system: MDA-MB-231 breast
[44] = test system: HS 578T breast
[45] = test system: NCI-H23 lung
[46] = test system: CCRF-CEM leukemia
[47] = test system: ACHN renal
[48] = test system: COLO 205 colon
[49] = test system: NCI-H322M lung
[50] = test system: SNB-19 CNS
[51] = test system: SF-539 CNS
[52] = test system: MCF7 breast
[53] = test system: NCI-H226 lung
[54] = test system: HCT-116 colon
[55] = test system: MDA-MB-468 breast
[56] = test system: HL-60(TB) leukemia
[57] = test system: NCI/ADR-RES ovarian
[58] = test system: MALME-3M melanoma
[59] = test system: K-562 leukemia
[60] = test system: SK-MEL-2 melanoma

Compound Cn1cnc2c(F)c(Nc3ccc(Br)cc3F)c(C(=O)NOCCO)cc21 has a GI50 [1] of 15.7 µM, a TGI [1] greater than 100 µM and a GI50 [2] of 0.0524 µM. It also gave a TGI [2] greater than 100 µM, a GI50 [3] of 0.0203 µM and a TGI [3] of 1.2 µM. The GI50 [4] was 0.922 µM, the TGI [4] was greater than 100 µM and the TGI [5] was greater than 100 µM. It also gave a TGI [6] greater than 21 µM, a GI50 [7] of 0.419 µM and a TGI [7] greater than 100 µM. It also gave a GI50 [8] of 38.3 µM, a TGI [8] greater than 100 µM and a TGI [9] greater than 75.8 µM. The GI50 [10] was 4.96 µM, the TGI [10] was greater than 45.9 µM and the GI50 [11] was greater than 45.4 µM. For the same compound, the TGI [11] was greater than 100 µM, the GI50 [12] was 0.0211 µM and the TGI [12] was greater than 100 µM. The GI50 [13] was less than 0.0143 µM, the TGI [13] was 0.162 µM and the GI50 [14] was greater than 100 µM. It also gave a TGI [14] greater than 100 µM, a GI50 [15] of 31.8 µM and a TGI [15] greater than 100 µM. It also gave a GI50 [16] greater than 32.1 µM, a TGI [16] greater than 100 µM and a GI50 [17] of 16.9 µM. For the same compound, the TGI [17] was greater than 100 µM, the GI50 [18] was greater than 100 µM and the TGI [18] was greater than 100 µM. The GI50 [19] was 17.9 µM, the TGI [19] was greater than 100 µM and the GI50 [20] was greater than 100 µM. It also gave a TGI [20] greater than 100 µM, a GI50 [21] greater than 100 µM and a TGI [21] greater than 100 µM. It also gave a GI50 [22] greater than 100 µM, a TGI [22] greater than 100 µM and a TGI [23] greater than 100 µM. The GI50 [24] was less than 0.01 µM, the TGI [24] was 0.733 µM and the GI50 [25] was 29.4 µM. It also gave a TGI [25] greater than 100 µM, a GI50 [26] of 0.0333 µM and a TGI [26] of 0.241 µM. The GI50 [27] was greater than 100 µM, the TGI [27] was greater than 100 µM and the GI50 [28] was greater than 100 µM. It also gave a TGI [28] greater than 100 µM, a GI50 [29] of 12.5 µM and a TGI [29] greater than 100 µM. It also gave a GI50 [30] of less than 0.0121 µM, a TGI [30] of 0.161 µM and a GI50 [31] of 0.0317 µM. For the same compound, the GI50 [32] was 12.4 µM, the TGI [32] was greater than 100 µM and the GI50 [33] was 1.25 µM. For the same compound, the TGI [33] was 18.7 µM, the GI50 [34] was greater than 67.4 µM and the TGI [34] was greater than 100 µM. For the same compound, the GI50 [35] was greater than 44.7 µM, the TGI [35] was greater than 100 µM and the GI50 [36] was 1.38 µM. For the same compound, the TGI [36] was 9.01 µM, the GI50 [37] was 0.1 µM and the TGI [37] was greater than 100 µM. For the same compound, the GI50 [38] was 1.55 µM, the TGI [38] was greater than 100 µM and the GI50 [39] was 24.7 µM. For the same compound, the TGI [39] was greater than 100 µM, the GI50 [40] was greater than 100 µM and the TGI [40] was greater than 100 µM. The GI50 [41] was greater than 56 µM, the TGI [41] was greater than 100 µM and the GI50 [42] was 0.553 µM. It also gave a TGI [42] greater than 100 µM, a GI50 [43] of 0.422 µM and a TGI [43] of 8.26 µM. The TGI [44] was greater than 88.2 µM, the GI50 [45] was 0.325 µM and the TGI [45] was 17.8 µM. It also gave a GI50 [46] greater than 100 µM, a TGI [46] greater than 100 µM and a GI50 [47] greater than 33.9 µM. For the same compound, the TGI [47] was greater than 100 µM, the GI50 [48] was less than 0.0149 µM and the TGI [48] was 0.322 µM. The GI50 [49] was 1.96 µM, the TGI [49] was greater than 57.7 µM and the GI50 [50] was greater than 100 µM. It also gave a TGI [50] greater than 100 µM, a GI50 [51] of 21.9 µM and a TGI [51] greater than 90.9 µM. For the same compound, the GI50 [52] was greater than 100 µM, the TGI [52] was greater than 100 µM and the GI50 [53] was 0.405 µM. It also gave a TGI [53] greater than 31.9 µM, a GI50 [54] of 0.498 µM and a TGI [54] of 15.2 µM. It also gave a GI50 [55] greater than 100 µM, a TGI [55] greater than 100 µM and a GI50 [56] of 0.0399 µM. It also gave a TGI [56] greater than 100 µM, a GI50 [57] of 93.9 µM and a TGI [57] greater than 100 µM. The GI50 [58] was less than 0.01 µM and the TGI [58] was 0.0159 µM.

Cc1cc(C)c(S(=O)(=O)N(CCc2cccc(Br)c2)Cc2ccc(-c3cccc(S(C)(=O)=O)c3)cc2)c(C)c1 showed a GI50 [1] greater than 100 µM, a TGI [1] greater than 100 µM and a GI50 [2] greater than 100 µM. The TGI [2] was greater than 100 µM, the GI50 [3] was greater than 100 µM and the TGI [3] was greater than 100 µM. The GI50 [4] was greater than 100 µM, the TGI [4] was greater than 100 µM and the GI50 [59] was greater than 100 µM. For the same compound, the TGI [59] was greater than 100 µM, the GI50 [5] was greater than 100 µM and the TGI [5] was greater than 100 µM. The GI50 [6] was greater than 100 µM, the TGI [6] was greater than 100 µM and the GI50 [7] was greater than 100 µM. The TGI [7] was greater than 100 µM, the GI50 [8] was greater than 100 µM and the TGI [8] was greater than 100 µM. It also gave a GI50 [9] greater than 100 µM, a TGI [9] greater than 100 µM and a GI50 [10] greater than 100 µM. For the same compound, the TGI [10] was greater than 100 µM, the GI50 [11] was greater than 100 µM and the TGI [11] was greater than 100 µM. The GI50 [12] was greater than 100 µM, the TGI [12] was greater than 100 µM and the GI50 [13] was greater than 100 µM. The TGI [13] was greater than 100 µM, the GI50 [14] was greater than 100 µM and the TGI [14] was greater than 100 µM. It also gave a GI50 [15] greater than 100 µM, a TGI [15] greater than 100 µM and a GI50 [16] greater than 100 µM. It also gave a TGI [16] greater than 100 µM, a GI50 [17] greater than 100 µM and a TGI [17] greater than 100 µM. The GI50 [18] was greater than 100 µM, the TGI [18] was greater than 100 µM and the GI50 [19] was greater than 100 µM. For the same compound, the TGI [19] was greater than 100 µM, the GI50 [20] was greater than 100 µM and the TGI [20] was greater than 100 µM. It also gave a GI50 [21] greater than 100 µM, a TGI [21] greater than 100 µM and a GI50 [22] greater than 100 µM. The TGI [22] was greater than 100 µM, the GI50 [23] was greater than 81.9 µM and the TGI [23] was greater than 100 µM. It also gave a GI50 [24] greater than 100 µM, a TGI [24] greater than 100 µM and a GI50 [25] greater than 100 µM. For the same compound, the TGI [25] was greater than 100 µM, the GI50 [26] was greater than 100 µM and the TGI [26] was greater than 100 µM. For the same compound, the GI50 [27] was greater than 100 µM, the TGI [27] was greater than 100 µM and the GI50 [28] was greater than 100 µM. The TGI [28] was greater than 100 µM, the GI50 [29] was greater than 100 µM and the TGI [29] was greater than 100 µM. The GI50 [30] was greater than 100 µM, the TGI [30] was greater than 100 µM and the GI50 [31] was greater than 100 µM. The TGI [31] was greater than 100 µM, the GI50 [32] was greater than 100 µM and the TGI [32] was greater than 100 µM. It also gave a GI50 [33] greater than 100 µM, a TGI [33] greater than 100 µM and a GI50 [34] greater than 100 µM. The TGI [34] was greater than 100 µM, the GI50 [35] was greater than 100 µM and the TGI [35] was greater than 100 µM. It also gave a GI50 [36] greater than 100 µM, a TGI [36] greater than 100 µM and a GI50 [37] greater than 100 µM. For the same compound, the TGI [37] was greater than 100 µM, the GI50 [38] was greater than 100 µM and the TGI [38] was greater than 100 µM. The TGI [39] was greater than 100 µM, the GI50 [40] was 0.0672 µM and the GI50 [41] was greater than 100 µM. It also gave a TGI [41] greater than 100 µM, a GI50 [42] greater than 100 µM and a TGI [42] greater than 100 µM. It also gave a GI50 [43] greater than 100 µM, a TGI [43] greater than 100 µM and a GI50 [45] greater than 100 µM. It also gave a TGI [45] greater than 100 µM, a GI50 [46] greater than 100 µM and a TGI [46] greater than 100 µM. It also gave a GI50 [60] greater than 100 µM, a TGI [60] greater than 100 µM and a GI50 [47] greater than 100 µM. It also gave a TGI [47] greater than 100 µM, a GI50 [48] greater than 100 µM and a TGI [48] greater than 100 µM. The GI50 [49] was greater than 100 µM, the TGI [49] was greater than 100 µM and the GI50 [50] was greater than 100 µM. For the same compound, the TGI [50] was greater than 100 µM, the GI50 [51] was greater than 100 µM and the TGI [51] was greater than 100 µM. It also gave a GI50 [52] greater than 100 µM, a TGI [52] greater than 100 µM and a GI50 [53] greater than 100 µM. For the same compound, the TGI [53] was greater than 100 µM, the GI50 [54] was greater than 100 µM and the TGI [54] was greater than 100 µM. For the same compound, the GI50 [55] was greater than 100 µM, the TGI [55] was greater than 100 µM and the TGI [56] was greater than 100 µM. For the same compound, the GI50 [57] was greater than 100 µM, the TGI [57] was greater than 100 µM and the GI50 [58] was greater than 100 µM. It also gave a TGI [58] greater than 100 µM.
